Measured values published in ChEMBL document CHEMBL1131793, “Discovery of FR166124, a novel water-soluble pyrazolo-[1,5-a]pyridine adenosine A1 receptor antagonist” (Bioorg Med Chem Lett, 1999).

Key:
[1] = Water solubility was measured; type: ADME
Adenosine receptor A1 = biological target: T1, Adenosine receptor A1 (Rattus norvegicus, UniProt P25099); assay: Inhibitory activity against Adenosine A1 Receptor using [3H]CHA in rat cortical membranes; type: cell membranes
T1 sequence (P25099 whole entry): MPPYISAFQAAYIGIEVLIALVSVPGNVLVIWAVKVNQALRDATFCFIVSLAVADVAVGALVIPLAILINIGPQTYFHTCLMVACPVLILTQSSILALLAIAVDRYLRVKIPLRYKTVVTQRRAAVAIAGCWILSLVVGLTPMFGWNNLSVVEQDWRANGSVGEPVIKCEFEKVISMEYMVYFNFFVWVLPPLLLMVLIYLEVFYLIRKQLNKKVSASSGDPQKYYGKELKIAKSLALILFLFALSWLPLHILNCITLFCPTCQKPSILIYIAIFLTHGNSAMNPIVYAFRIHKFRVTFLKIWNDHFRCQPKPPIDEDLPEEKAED

Adenosine receptor A2a = Adenosine receptor A2a (Rattus norvegicus, UniProt P30543); assay: Inhibitory activity against Adenosine A2a receptor using [3H]NECA in rat striatal membranes; type: cell membranes, Striatum, Membrane
Chain of Adenosine receptor A2a (P30543 whole entry): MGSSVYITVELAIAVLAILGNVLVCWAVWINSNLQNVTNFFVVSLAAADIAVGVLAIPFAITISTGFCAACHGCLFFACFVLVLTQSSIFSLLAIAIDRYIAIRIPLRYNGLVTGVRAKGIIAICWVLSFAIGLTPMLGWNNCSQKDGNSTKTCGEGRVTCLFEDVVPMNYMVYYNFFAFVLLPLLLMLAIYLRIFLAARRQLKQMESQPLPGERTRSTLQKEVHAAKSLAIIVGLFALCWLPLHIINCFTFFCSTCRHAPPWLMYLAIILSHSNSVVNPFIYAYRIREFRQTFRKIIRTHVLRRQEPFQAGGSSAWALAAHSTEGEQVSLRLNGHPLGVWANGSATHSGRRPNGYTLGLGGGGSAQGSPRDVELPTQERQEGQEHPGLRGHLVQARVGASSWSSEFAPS

Row | solubility [1] | IC50 (Adenosine receptor A1) | IC50 (Adenosine receptor A2a) | Compound
1 | > 200000 µg/mL |  |  | O=C([O-])CC1=C(n2nc(-c3c(-c4ccccc4)nn4ccccc34)ccc2=O)CCCC1.[Na+]
2 |  | 34 nM | 5500 nM | O=C(O)C[C@H]1CCCC[C@H]1n1nc(-c2c(-c3ccccc3)nn3ccccc23)ccc1=O
3 |  | 120 nM | 5900 nM | O=C(O)CCCn1nc(-c2c(-c3ccccc3)nn3ccccc23)ccc1=O

Further lines, the compound ahead of its results:

Row | Compound | solubility [1] | IC50 (Adenosine receptor A1) | IC50 (Adenosine receptor A2a)
4 | O=C([O-])CCCn1nc(-c2c(-c3ccccc3)nn3ccccc23)ccc1=O.[Na+] | 10000 µg/mL |  | 
5 | O=C(O)C[C@@H]1CCCC[C@H]1n1nc(-c2c(-c3ccccc3)nn3ccccc23)ccc1=O |  | 3.6 nM | 100 nM
6 | O=C(O)CC1=C(n2nc(-c3c(-c4ccccc4)nn4ccccc34)ccc2=O)CCC1 |  | 11 nM | 840 nM
7 | O=C(O)CC1=C(n2nc(-c3c(-c4ccccc4)nn4ccccc34)ccc2=O)CCCC1 |  | 15 nM | 6200 nM
8 | O=C(O)CC1=C(n2nc(-c3c(-c4ccccc4)nn4ccccc34)ccc2=O)CCCCC1 |  | 16 nM | 5500 nM
9 | O=C(/C=C/c1c(-c2ccccc2)nn2ccccc12)N1CCCC[C@@H]1CCO [FK453] |  | 17 nM | 11000 nM
